Laboratory results taken from US7875606B2, “Izoxazoline derivative and herbicide” (Ihara Chemical Industry Co., Ltd., priority 2001, dated 2011).

Assays:
Assay type in all cases: in vivo
[1] = test system: Setaria viridis (L.) Beauv.; experiment: Herbicidal effect by upland field pre-emergence treatment; conditions: sprayed on the soil surface, active ingredient 1000 g/ha, examined at the 21st day from the treatment
Protocol: (§1) Test For Herbicidal Effect By Upland Field Pre-Emergence Treatment An upland field soil was filled in a plastic pot of 80 cm^2. Seeds of Echinochloa crus-galli (L.) Beauv. var. crus-galli and Setaria viridis (L.) Beauv. were sowed, followed by covering with the same soil. Wettable powders produced in accordance with the Formulation 1 were diluted with water and sprayed uniformly on the soil surface using a small sprayer, in an amount of 1,000 liters per 1 hectare so that the amount of each active ingredient became 1,000 g per 1 hectare. Then, breeding was made in a greenhouse, and the herbicidal effect of each wettable powder was examined at the 21st day from the treatment in accordance with the standard shown in Table 61.

[2] = test system: Echinochloa crus-galli (L.) Beauv. var. crus-galli; experiment: as above; conditions: sprayed on the soil surface, active ingredient 1000 g/ha, examined at the 21st day from the treatment
Protocol: as §1

[3] = test system: Monochoria vaginalis (Murm. f.) Presl var. plantaginea (Roxb.) Solms-Laub.; experiment: Herbicidal effect by paddy field pre-emergence treatment; conditions: wettable powder, active ingredient 1000 g/ha, examined at the 21st day from the treatment
Protocol: (§2) Test For Herbicidal Effect By Paddy Field Pre-Emergence Treatment
(§3) A paddy field soil was filled in a plastic pot of 100 cm^2 and subjected to puddling. Then, seeds of Echinochloa oryzicola Vasing. and Monochoria vaginalis (Murm. f.) Presl var. plantaginea (Roxb.) Solms-Laub. were sowed and water was filled in a depth of 3 cm. Next day, wettable powders produced in accordance with the Formulation 1 were diluted with water and dropped on the water surface. The application amount of each wettable powder was 1,000 g per 1 hectare in terms of the active ingredient. Then, breeding was made in a greenhouse, and the herbicidal effect of each wettable powder was examined at the 21st day from the treatment in accordance with the standard shown in Table 61.

[4] = test system: Echinochloa oryzicola Vasing.; experiment: as above; conditions: wettable powder, active ingredient 1000 g/ha, examined at the 21st day from the treatment
Protocol: as §2, §3

Cn1nc(C(F)(F)F)c(CS(=O)(=O)C2=NOC(C)(CCl)C2)c1Cl (stereo not shown) [Compound 2, 3-(5-chloro-1-methyl-3-trifluoromethyl-1H-pyrazol-4-ylmethylsulfonyl)-5-chloromethyl-5-methyl-2-isoxazoline]
5: Herbicidal effect index, Setaria viridis (L.) Beauv. [1] | Herbicidal effect index, Echinochloa crus-galli (L.) Beauv. Var. crus-galli [2] | Herbicidal effect index, Monochoria vaginalis (Burm. f) Presl Var. plantaginea (Roxb.) Solms-Laub. [3] | Herbicidal effect index, Echinochloa oryzicola Vasing [4]
